≈ marks a conversion by molar mass, not a printed value. Calls of active or inactive are those of the source. The rule behind the calls is not given here.
Assays:
Format in all cases: functional
[1] = tested on: Staphylococcus aureus; assay: Antibacterial activity against methicillin-resistant Staphylococcus aureus after 20 to 24 hrs
[2] = tested on: Enterococcus; assay: Antibacterial activity against vancomycin-resistant Enterococcus after 20 to 24 hrs
[3] = tested on: Pseudomonas aeruginosa; assay: Antibacterial activity against Pseudomonas aeruginosa ATCC 27853 after 20 to 24 hrs
[4] = tested on: Escherichia coli; assay: Antibacterial activity against Escherichia coli ATCC 25922 after 20 to 24 hrs

| SMILES | MIC [1] | MIC [2] | MIC [3] | MIC [4] | Activity [1] | Activity [2] | Activity [4] |
| --- | --- | --- | --- | --- | --- | --- | --- |
| N=C(N/N=C/c1c(Cl)cccc1Cl)N/N=C/c1c(Cl)cccc1Cl | > 400 µM | > 400 µM | > 400 µM | > 400 µM |  |  |  |
| COc1cccc(/C=N/NC(=N)N/N=C/c2cccc(OC)c2)c1 | 88 µM (≈ 28.6 µg/mL) | 88 µM (≈ 28.6 µg/mL) | > 400 µM | > 400 µM |  |  |  |
| CC(C)c1ccc(/C=N/NC(=N)N/N=C/c2ccc(C(C)C)cc2)cc1 | 9.1 µM (≈ 3.18 µg/mL) | 13 µM (≈ 4.54 µg/mL) | > 400 µM | > 400 µM |  |  |  |
| COc1cc(Br)c(/C=N/NC(=N)N/N=C/c2cc(OC)c(OC)cc2Br)cc1OC | > 400 µM | > 400 µM | > 400 µM | > 400 µM |  |  |  |
| C#Cc1ccc(/C=N/NC(=N)N/N=C/c2ccc(C#C)cc2)cc1 | > 400 µM | 17.2 µM (≈ 5.39 µg/mL) | > 400 µM | > 400 µM |  |  |  |
| CSc1ccc(/C=N/NC(=N)N/N=C/c2ccc(SC)cc2)cc1 | 61 µM (≈ 21.8 µg/mL) | 12.7 µM (≈ 4.54 µg/mL) | > 400 µM | > 400 µM |  |  |  |
| N=C(N/N=C/C1CCCCC1)N/N=C/C1CCCCC1 | 408 µM (≈ 113 µg/mL) | 306 µM (≈ 84.9 µg/mL) |  |  |  |  |  |
| N=C(N/N=C/c1cnc2ccccc2c1)N/N=C/c1cnc2ccccc2c1 |  |  |  |  | inactive | inactive |  |
| N=C(N/N=C/c1ccc2ccccc2c1)N/N=C/c1ccc2ccccc2c1 | 239 µM (≈ 87.3 µg/mL) | 159 µM (≈ 58.1 µg/mL) |  |  |  |  |  |
| N=C(N/N=C/c1ccc2[nH]ccc2c1)N/N=C/c1ccc2[nH]ccc2c1 | 31.6 µM (≈ 10.9 µg/mL) | 42 µM (≈ 14.4 µg/mL) |  |  |  |  |  |
| N=C(N/N=C(\C(=O)O)c1ccccc1)N/N=C(\C(=O)O)c1ccccc1 | > 400 µM | > 400 µM |  |  |  |  | inactive |
| N=C(N/N=C/c1csc2ccc(Cl)cc12)N/N=C/c1csc2ccc(Cl)cc12 | > 400 µM | 33.1 µM (≈ 14.8 µg/mL) |  |  |  |  |  |
| C/C(=N\NC(=N)N/N=C(\C)c1ccc(C)cc1)c1ccc(C)cc1 | 11.2 µM (≈ 3.6 µg/mL) | 8.4 µM (≈ 2.7 µg/mL) |  |  |  |  | inactive |
| COc1ccc(/C=C/C=N/NC(=N)N/N=C/C=C/c2ccc(OC)cc2)cc1 | 309 µM (≈ 117 µg/mL) | > 400 µM |  |  |  |  |  |
| N=C(N/N=C/C(=C/c1ccccc1)c1ccccc1)N/N=C/C(=C/c1ccccc1)c1ccccc1 | 61 µM (≈ 28.6 µg/mL) | > 400 µM |  |  |  |  |  |
| CCC/C(=N\NC(=N)N/N=C(\CCC)c1ccc(Cl)cc1)c1ccc(Cl)cc1 | > 400 µM | > 400 µM |  |  |  |  | inactive |
| CC/C(=N\NC(=N)N/N=C(\CC)c1ccc(Cl)cc1)c1ccc(Cl)cc1 | 56 µM (≈ 21.9 µg/mL) | 18.7 µM (≈ 7.3 µg/mL) |  |  |  |  | inactive |
| N=C(N/N=C/c1ccncc1)N/N=C/c1ccncc1 | > 400 µM | > 400 µM |  |  |  |  |  |
| C/C(=N\NC(=N)N/N=C(\C)c1ccccc1)c1ccccc1 | 18.2 µM (≈ 5.34 µg/mL) | 49 µM (≈ 14.4 µg/mL) |  |  |  |  | inactive |
| N=C(N/N=C/c1cccnc1N)N/N=C/c1cccnc1N | > 400 µM | > 400 µM |  |  |  |  |  |
| N=C(N/N=C/c1cnc2ccccc2n1)N/N=C/c1cnc2ccccc2n1 |  |  |  |  | inactive | inactive |  |
| N=C(N/N=C(\CN)c1ccccc1)N/N=C(\CN)c1ccccc1 | > 400 µM | > 400 µM |  |  |  |  | inactive |
| C/C(=N\NC(=N)N/N=C(\C)c1ccc(C(C)(C)C)cc1)c1ccc(C(C)(C)C)cc1 | 4.5 µM (≈ 1.83 µg/mL) | 36.2 µM (≈ 14.7 µg/mL) |  |  |  |  | inactive |
| C/C(=N\NC(=N)N/N=C(\C)c1ccc(N2CCNCC2)cc1)c1ccc(N2CCNCC2)cc1 | 243 µM (≈ 112 µg/mL) | 278 µM (≈ 128 µg/mL) |  |  |  |  | inactive |
| N=C(N/N=C/c1cnccc1Cl)N/N=C/c1cnccc1Cl | 172 µM (≈ 57.8 µg/mL) | 86 µM (≈ 28.9 µg/mL) |  |  |  |  |  |
| CCCC/C(=N\NC(=N)N/N=C(\CCCC)c1ccc(Cl)cc1)c1ccc(Cl)cc1 | > 400 µM | > 400 µM |  |  |  |  | inactive |
| C/C(=N\NC(=N)N/N=C(\C)c1ccc(C(F)(F)F)cc1)c1ccc(C(F)(F)F)cc1 | > 400 µM | 17.2 µM (≈ 7.39 µg/mL) |  |  |  |  | inactive |
| C/C(=N\NC(=N)N/N=C(\C)c1ccc(Br)cc1)c1ccc(Br)cc1 | 16.4 µM (≈ 7.4 µg/mL) | 24.6 µM (≈ 11.1 µg/mL) |  |  |  |  | inactive |
| N=C(N/N=C/C=C/c1ccccc1)N/N=C/C=C/c1ccccc1 | > 400 µM | > 400 µM |  |  |  |  |  |

Source: ChEMBL document CHEMBL3779887, “Robenidine Analogues as Gram-Positive Antibacterial Agents” (J Med Chem, 2016)
